Like-named read-outs stand apart in the source and are kept apart here.
Tests used:
[1] = system: crabgrass; test: Example 1: pot test, foliar treatment, visually observed growth inhibition of crabgrass; assay type: in vivo
Excerpt: (§1) When the herbicidal activity in a case where two active ingredients are combined, is larger than the simple sum of the respective herbicidal activities of the two active ingredients (the expected activity), it is called a synergistic effect. The activity expected by the combination of two active ingredients can be calculated as follows (Colby S. R., “Weed”, vol. 15, p. 20-22, 1967). E=α+β−(α×β+100) where
(§2) α: growth inhibition rate when treated with x (g/ha) of herbicide X,
(§3) β: growth inhibition rate when treated with y (g/ha) of herbicide Y,
(§4) E: growth inhibition rate expected when treated with x (g/ha) of herbicide X and y (g/ha) of herbicide Y.
(§5) That is, when the actual growth inhibition rate (measured value) is larger than the growth inhibition rate by the above calculation (calculated value), the activity by the combination can be regarded as showing a synergistic effect.
(§6) Upland field soil was put into a 1/1,000,000 hectare pot, and seeds of various plants were sown. When the respective plants reached predetermined leaf stage, herbicidal compositions in predetermined amounts were diluted with water in an amount corresponding to 300 L/ha and applied for foliar treatment by a small sprayer.
(§7) Further, in accordance with the above Colby's formula, the growth inhibition rate (calculated value) was calculated. In Tables, with respect to the compound A, Compound Nos. in Table 1 or 3 are described, and with respect to other herbicidal compounds, common names are described.

[2] = system: various plants; test: Example 1: pot test, foliar treatment, visually observed growth inhibition of other sown plants (Tables 5-1 to 5-137); assay type: in vivo; settings: Ipomoea, foliar, ivyleaf morningglory 1.5 to 2.1 leaf stage, 14th day after application, read-out: Growth inhibition rate (%) of ivyleaf morningglory, Measured value
Excerpt: as §1, §2, §3, §4, §5, §6
as §7, with “On the 14th to 28th day after application, the state of growth of the respective plants was visually observed to determine the growth inhibition rate (measured value) in accordance with the following evaluation standard. Further,” for “Further,”

[3] = system: velvetleaf; test: Example 1: pot test, foliar treatment, visually observed growth inhibition of velvetleaf; assay type: in vivo, Abutilon theophrasti MEDIC.
Excerpt: as §1, §2, §3, §4, §5, §6, §7

[4] = Digitaria sanguinalis, foliar, 3.0 to 4.3 leaf stage, 21st day after application, read-out: Growth inhibition rate (%) of crabgrass, Measured value
[5] = Digitaria sanguinalis, foliar, read-out: Growth inhibition rate (%) of crabgrass, Measured value

Compound: CCOCN(C(=O)CCl)c1c(C)cccc1CC [Acetochlor]
- inhibition at 400 g/ha ([1]; Digitaria sanguinalis, foliar, 3.3 to 4.2 leaf stage, 24th day after application, 400 g/ha, read-out: Growth inhibition rate (%) of crabgrass, Measured value): 0%
- inhibition at 600 g/ha ([1]; Digitaria sanguinalis, foliar, 3.3 to 4.2 leaf stage, 24th day after application, 600 g/ha, read-out: Growth inhibition rate (%) of crabgrass, Measured value): 0%
- inhibition at 800 g/ha ([1]; Digitaria sanguinalis, foliar, 3.3 to 4.2 leaf stage, 24th day after application, 800 g/ha, read-out: Growth inhibition rate (%) of crabgrass, Measured value): 0%
- inhibition at 1600 g/ha ([1]; Digitaria sanguinalis, foliar, 3.3 to 4.2 leaf stage, 24th day after application, 1600 g/ha, read-out: Growth inhibition rate (%) of crabgrass, Measured value): 0%
- inhibition at 100 g/ha ([2]; 100 g/ha): 0%
- inhibition at 150 g/ha ([2]; 150 g/ha): 0%
- inhibition at 200 g/ha ([2]; 200 g/ha): 0%
- inhibition at 150 g/ha ([3]; Abutilon theophrasti, foliar, 2.0 to 2.5 leaf stage, 21st day after application, 150 g/ha, read-out: Growth inhibition rate (%) of velvetleaf, Measured value): 0%
- inhibition at 150 g/ha ([3]; Abutilon theophrasti, foliar, 3.3 to 4.2 leaf stage, 22nd day after application, 150 g/ha, read-out: Growth inhibition rate (%) of velvetleaf, Measured value): 0%
- inhibition at 300 g/ha ([3]; Abutilon theophrasti, foliar, 3.3 to 4.2 leaf stage, 22nd day after application, 300 g/ha, read-out: Growth inhibition rate (%) of velvetleaf, Measured value): 0%

Compound: CCOCCN(C(=O)CCl)C(=C(C)C)c1ccccc1 [Pethoxamid]
- Growth inhibition rate (%) of crabgrass, Measured value ([1]; 3.5 to 5.0 leaf stage, 22nd day after application, 100 g/ha): 0%
- Growth inhibition rate (%) of velvetleaf, Measured value ([3]; 3.5 to 4.0 leaf stage, 14th day after application, 200 g/ha): 60%

Compound: COc1nc(C)nc(NC(=O)NS(=O)(=O)c2ccccc2CCC(F)(F)F)n1 [Prosulfuron]
- inhibition at 15 g/ha ([1]; Digitaria sanguinalis, foliar, 3.0 to 4.3 leaf stage, 21st day after application, 15 g/ha, read-out: Growth inhibition rate (%) of crabgrass, Measured value): 0%
- inhibition at 30 g/ha [1, 4]: 0%
- inhibition at 15 g/ha ([1]; Digitaria sanguinalis, foliar, 3.2 to 4.1 leaf stage, 14th day after application, 15 g/ha, read-out: Growth inhibition rate (%) of crabgrass, Measured value): 0%
- inhibition at 30 g/ha ([1]; Digitaria sanguinalis, foliar, 3.2 to 4.1 leaf stage, 14th day after application, read-out: Growth inhibition rate (%) of crabgrass, Measured value): 10%
- inhibition at 15 g/ha ([1]; Digitaria sanguinalis, foliar, 3.2 to 4.1 leaf stage, 21st day after application, 15 g/ha, read-out: Growth inhibition rate (%) of crabgrass, Measured value): 0%
- inhibition at 5 g/ha ([1]; Digitaria sanguinalis, foliar, 3.2 to 4.3 leaf stage, 14th day after application, 5 g/ha, read-out: Growth inhibition rate (%) of crabgrass, Measured value): 0%
- inhibition at 10 g/ha ([1]; Digitaria sanguinalis, foliar, 3.2 to 4.3 leaf stage, 14th day after application, 10 g/ha, read-out: Growth inhibition rate (%) of crabgrass, Measured value): 0%
- inhibition at 30 g/ha ([3]; Abutilon theophrasti, foliar, 3.0 to 4.0 leaf stage, 21st day after application, 30 g/ha, read-out: Growth inhibition rate (%) of velvetleaf, Measured value): 95%

Compound: CCCCCCCCSC(=O)Oc1cc(Cl)nnc1-c1ccccc1 [Pyridate]
- inhibition at 100 g/ha ([1]; Digitaria sanguinalis, foliar, 3.0 to 4.3 leaf stage, 21st day after application, 100 g/ha, read-out: Growth inhibition rate (%) of crabgrass, Measured value): 0%
- inhibition at 200 g/ha [1, 4]: 0%
- inhibition at 200 g/ha ([1]; Digitaria sanguinalis, foliar, 3.2 to 4.3 leaf stage, 21st day after application, read-out: Growth inhibition rate (%) of crabgrass, Measured value): 0%
- inhibition at 200 g/ha ([1]; Digitaria sanguinalis, foliar, 4.1 to 5.3 leaf stage, 20th day after application, read-out: Growth inhibition rate (%) of crabgrass, Measured value): 5%
- inhibition at 200 g/ha ([3]; Abutilon theophrasti, foliar, 3.2 to 4.3 leaf stage, 21st day after application, 200 g/ha, read-out: Growth inhibition rate (%) of velvetleaf, Measured value): 0%

Compound: CCc1cccc(C)c1N(C(=O)CCl)[C@@H](C)COC [S-Metolachlor, S-metolachlor, reference compound]
- Growth inhibition rate (%) of crabgrass, Measured value ([1]; 4.0 to 4.5 leaf stage, 21st day after application, 300 g/ha): 8%
- Growth inhibition rate (%) of crabgrass, Measured value ([1]; 4.0 to 5.0 leaf stage, 21st day after application, 150 g/ha): 0%
- Growth inhibition rate (%) of velvetleaf, Measured value ([3]; 2.4 to 3.2 leaf stage, on the 22nd day after application, foliar, active ingredient amount 150 g/ha): 0%
- Growth inhibition rate (%) of velvetleaf, Measured value ([3]; 2.5 to 3.3 leaf stage, 21st day after application, 150 g/ha): 0%
- Growth inhibition rate (%) of velvetleaf, Measured value ([3]; 2.5 to 3.3 leaf stage, 21st day after application, 300 g/ha): 0%
- Growth inhibition rate (%) of velvetleaf, Measured value ([3]; 3.0 to 3.5 leaf stage, 20th day after application, 150 g/ha): 0%
- Growth inhibition rate (%) of velvetleaf, Measured value ([3]; 3.0 to 3.5 leaf stage, 21st day after application, 150 g/ha): 0%
- Growth inhibition rate (%) of velvetleaf, Measured value ([3]; 3.0 to 3.5 leaf stage, 21st day after application, 300 g/ha): 0%
- Growth inhibition rate (%) of velvetleaf, Measured value ([3]; 3.0 to 3.8 leaf stage, 15th day after application, 15 g/ha): 0%
- Growth inhibition rate (%) of velvetleaf, Measured value ([3]; 3.2 to 5.0 leaf stage, 14th day after application, 150 g/ha): 0%
- Growth inhibition rate (%) of velvetleaf, Measured value ([3]; 3.3 to 4.2 leaf stage, 14th day after application, 150 g/ha): 0%
- Growth inhibition rate (%) of velvetleaf, Measured value ([3]; 3.3 to 4.2 leaf stage, 14th day after application, 300 g/ha): 0%
- Growth inhibition rate (%) of velvetleaf, Measured value ([3]; 3.5 to 4.3 leaf stage, 21st day after application, 150 g/ha): 0%

Compound: CS(=O)(=O)c1ccc(C(=O)C2C(=O)CCCC2=O)c(Cl)c1 [Sulcotrione]
- inhibition at 15 g/ha [1, 5]: 10%
- inhibition at 15.6 g/ha [1, 5]: 50%
- inhibition at 31 g/ha [1, 5]: 65%
- inhibition at 15 g/ha ([3]; Abutilon theophrasti, foliar, read-out: Growth inhibition rate (%) of velvetleaf, Measured value, 3.2 to 4.3 leaf stage, 21st day after application, 15 g/ha): 25%
